Results as given in the supplement of paper PMC10307832.

How the values were obtained:
Experiment in all cases: relative viability (nuclei count vs DMSO), 5 days (fraction); higher = more cells survive
Tanzisertib + Tozasertib = compound: O[C@H]1CC[C@H](Nc2ncc3nc(Nc4c(F)cc(F)cc4F)n([C@H]4CCOC4)c3n2)CC1 [Tanzisertib] + Cc1cc(Nc2cc(N3CCN(C)CC3)nc(Sc3ccc(NC(=O)C4CC4)cc3)n2)n[nH]1 [Tozasertib] (partner 0.1 µM)
Method in brief: (§1)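 Relative viability equals treated-well nuclei counts divided by vehicle-well nuclei counts. Counts came from 4× images of lung cancer cell lines grown in 1536-well plates for 5 days after pin-tool dosing on the day after seeding. Dosing used one drug alone or a fixed anchor-drug dose plus five library-drug doses (not always all listed) in √10 steps, and values are medians of duplicate plates.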

Tanzisertib + Linsitinib = compound: O[C@H]1CC[C@H](Nc2ncc3nc(Nc4c(F)cc(F)cc4F)n([C@H]4CCOC4)c3n2)CC1 [Tanzisertib] + C[C@]1(O)C[C@@H](c2nc(-c3ccc4ccc(-c5ccccc5)nc4c3)c3c(N)nccn32)C1 [Linsitinib] (partner 1 µM)
Method in brief: as §1

[1] = compound: C1CNCCC1C2=CC(=NN2)C3=CC=NC=C3 + COc1cc2c(Oc3ccc(NC(=O)C4(C(=O)Nc5ccc(F)cc5)CC4)cc3F)ccnc2cc1OCCCN1CCOCC1 [Foretinib] (partner 0.25 µM)
Method in brief: as §1

[2] = compound: C1CNCCC1C2=CC(=NN2)C3=CC=NC=C3 + C[C@]1(O)C[C@@H](c2nc(-c3ccc4ccc(-c5ccccc5)nc4c3)c3c(N)nccn32)C1 [Linsitinib] (partner 1 µM)
Method in brief: as §1

| Cell Line | relative viability (Tanzisertib + Tozasertib; first compound 0.08 µM) | relative viability (Tanzisertib + Tozasertib; first compound 0.253 µM) | relative viability (Tanzisertib + Tozasertib; first compound 0.8 µM) | relative viability (Tanzisertib + Tozasertib; first compound 2.53 µM) | relative viability (Tanzisertib + Tozasertib; first compound 8 µM) | relative viability (Tanzisertib + Linsitinib; first compound 0.08 µM) | relative viability (Tanzisertib + Linsitinib; first compound 0.253 µM) | relative viability (Tanzisertib + Linsitinib; first compound 0.8 µM) | relative viability (Tanzisertib + Linsitinib; first compound 2.53 µM) | relative viability (Tanzisertib + Linsitinib; first compound 8 µM) | relative viability ([1]; first compound 0.08 µM) | relative viability ([1]; first compound 0.8 µM) | relative viability ([1]; first compound 2.53 µM) | relative viability ([1]; first compound 8 µM) | relative viability ([2]; first compound 0.08 µM) | relative viability ([2]; first compound 0.8 µM) | relative viability ([2]; first compound 2.53 µM) | relative viability ([2]; first compound 8 µM) |
| --- | --- | --- | --- | --- | --- | --- | --- | --- | --- | --- | --- | --- | --- | --- | --- | --- | --- | --- |
| 201T | 0.989 | 0.923 | 0.943 | 0.866 | 0.875 | 1.02 | 1.01 | 0.969 | 1.01 | 0.956 | 1.08 | 1.21 | 1.3 | 1.03 | 1.02 | 1.01 | 0.996 | 1.04 |
| A549 | – | – | – | – | – | 0.736 | 0.551 | 0.703 | 0.623 | 0.533 | 0.932 | 0.979 | 1.03 | 1.01 | 0.509 | 0.556 | 0.696 | 0.729 |
| A-427 | 0.244 | 0.196 | 0.214 | 0.198 | 0.2 | 1.15 | 1.11 | 1.14 | 1.07 | 1.17 | 1.11 | 1.21 | 1.13 | 1.04 | 1.09 | 1.09 | 1.15 | 1.07 |
| ABC-1 | 0.165 | 0.197 | 0.175 | 0.137 | 0.134 | 0.728 | 0.65 | 1.07 | 0.977 | 0.736 | 1.04 | 1.1 | 1.46 | 1.35 | 0.702 | 0.644 | 0.685 | 1.01 |
| BEN | 0.464 | 0.451 | 0.621 | 0.418 | 0.407 | 0.875 | 0.916 | 1.11 | 0.984 | 0.904 | 0.548 | 0.752 | 0.646 | 0.692 | 0.689 | 0.984 | 0.921 | 0.913 |
| CAL-12T | 0.361 | 0.409 | 0.307 | 0.264 | 0.266 | 0.896 | 0.769 | 0.882 | 0.977 | 0.817 | 1.09 | 1.11 | 1.22 | 1.06 | 0.792 | 0.754 | 0.9 | 0.872 |
| COR-L23 | 0.201 | 0.228 | 0.184 | 0.189 | 0.121 | 1.09 | 0.874 | 0.896 | 1.02 | 0.934 | 1.07 | 0.946 | 1.01 | 0.931 | 0.931 | 1.05 | 0.984 | 0.918 |
| COR-L 105 | 0.386 | 0.366 | 0.323 | 0.388 | 0.331 | 1.13 | 0.78 | 0.895 | 1.12 | 0.77 | 1.22 | 1.07 | 1.13 | 1.67 | 0.986 | 0.896 | 0.965 | 0.926 |
| Calu-6 | – | – | – | – | – | 1.09 | 0.862 | 0.957 | 1.02 | 0.928 | 0.951 | 0.912 | 0.781 | 0.914 | 0.877 | 0.941 | 0.994 | 0.884 |
| ChaGo-K-1 | 0.251 | 0.227 | 0.216 | 0.218 | 0.217 | – | – | – | – | – | 0.997 | 1.01 | 0.886 | 0.923 | – | – | – | – |
| EBC-1 | – | – | – | – | – | 1.29 | 0.876 | 0.846 | 0.899 | 0.783 | 0.116 | 0.111 | 0.0919 | 0.135 | 0.899 | 0.938 | 1.09 | 0.949 |
| EKVX | 0.403 | 0.395 | 0.407 | 0.36 | 0.377 | 0.953 | 1.02 | 1.04 | 1.02 | 0.822 | 0.902 | 0.437 | 1.5 | 0.716 | 1.06 | 0.865 | 1.13 | 0.984 |
| EMC-BAC-2 | 0.268 | 0.275 | 0.262 | 0.277 | 0.277 | 0.825 | 0.806 | 0.825 | 0.743 | 0.771 | 0.937 | 1.05 | 1.16 | 0.843 | 0.78 | 0.806 | 0.818 | 0.771 |
| EPLC-272H | 0.308 | 0.183 | 0.326 | 0.303 | 0.171 | 1.46 | 1.18 | 1.19 | 1.12 | 1.08 | 0.647 | 0.674 | 0.678 | 0.706 | 1.15 | 1.15 | 1.22 | 1.17 |
| H3255 | 0.736 | 0.607 | 0.675 | 0.588 | 0.427 | 0.966 | 0.841 | 0.983 | 0.907 | 0.636 | 0.861 | 0.983 | 1.03 | 0.9 | 0.858 | 1.13 | 0.957 | 0.993 |
| HARA | 0.136 | 0.112 | 0.109 | 0.0917 | 0.103 | 0.842 | 0.572 | 0.901 | 0.892 | 0.987 | 0.842 | 1.21 | 0.993 | 0.707 | 0.938 | 1.07 | 0.983 | 0.939 |
| HCC-15 | 0.535 | 0.294 | 0.391 | 0.4 | 0.27 | 1.05 | 0.833 | 0.896 | 0.786 | 0.924 | 0.899 | 1.18 | 1.07 | 1.03 | 0.809 | 0.903 | 0.937 | 0.905 |
| HCC-44 | 1.05 | 0.913 | 1.04 | 0.976 | 1.02 | 0.683 | 0.74 | 0.673 | 0.602 | 0.724 | – | – | – | – | 0.66 | 0.595 | 0.698 | 0.684 |
| HCC-78 | 0.493 | 0.392 | 0.422 | 0.389 | 0.329 | 0.478 | 0.524 | 0.528 | 0.367 | 0.529 | 0.532 | 0.507 | 0.602 | 0.536 | 0.446 | – | 0.513 | 0.61 |
